Measured values reported in article PMC4774911, “Biochemical Screening of Five Protein Kinases from Plasmodium falciparum against 14,000 Cell-Active Compounds” (PLoS ONE, 2016).
Values joined by “and” are separate entries in the source; they are usually repeats but may differ in a detail not shown here. Equal entries are not always repeated.

Key:
Assay in all cases: biochemical
MAP3K4 = MAP3K4 (Homo sapiens, UniProt Q9Y6R4)
CHUK = target: T1, CHUK (Homo sapiens, UniProt O15111)
T1 sequence (O15111 1-745): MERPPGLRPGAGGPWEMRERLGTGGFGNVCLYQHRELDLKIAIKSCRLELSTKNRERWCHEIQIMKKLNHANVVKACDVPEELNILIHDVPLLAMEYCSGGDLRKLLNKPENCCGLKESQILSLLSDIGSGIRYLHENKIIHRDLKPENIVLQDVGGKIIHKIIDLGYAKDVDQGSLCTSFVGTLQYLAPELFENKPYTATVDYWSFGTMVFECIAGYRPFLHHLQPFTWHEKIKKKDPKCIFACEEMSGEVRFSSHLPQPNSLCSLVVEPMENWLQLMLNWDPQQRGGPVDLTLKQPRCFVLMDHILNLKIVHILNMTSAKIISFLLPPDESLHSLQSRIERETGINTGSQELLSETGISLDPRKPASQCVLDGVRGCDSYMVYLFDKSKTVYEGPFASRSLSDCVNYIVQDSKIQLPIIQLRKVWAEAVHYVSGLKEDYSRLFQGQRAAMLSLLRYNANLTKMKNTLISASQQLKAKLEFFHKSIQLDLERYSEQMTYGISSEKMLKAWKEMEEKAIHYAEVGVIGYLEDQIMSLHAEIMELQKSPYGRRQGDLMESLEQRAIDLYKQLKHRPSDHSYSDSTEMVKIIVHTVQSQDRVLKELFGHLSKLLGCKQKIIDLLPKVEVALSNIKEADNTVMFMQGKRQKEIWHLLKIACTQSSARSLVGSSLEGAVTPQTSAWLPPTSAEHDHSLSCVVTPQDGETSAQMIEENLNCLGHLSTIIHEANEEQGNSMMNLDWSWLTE

DYRK1A = DYRK1A (Homo sapiens, UniProt Q13627)
TEC = target: T2, TEC (Homo sapiens, UniProt P42680)
T2 sequence (P42680 1-631): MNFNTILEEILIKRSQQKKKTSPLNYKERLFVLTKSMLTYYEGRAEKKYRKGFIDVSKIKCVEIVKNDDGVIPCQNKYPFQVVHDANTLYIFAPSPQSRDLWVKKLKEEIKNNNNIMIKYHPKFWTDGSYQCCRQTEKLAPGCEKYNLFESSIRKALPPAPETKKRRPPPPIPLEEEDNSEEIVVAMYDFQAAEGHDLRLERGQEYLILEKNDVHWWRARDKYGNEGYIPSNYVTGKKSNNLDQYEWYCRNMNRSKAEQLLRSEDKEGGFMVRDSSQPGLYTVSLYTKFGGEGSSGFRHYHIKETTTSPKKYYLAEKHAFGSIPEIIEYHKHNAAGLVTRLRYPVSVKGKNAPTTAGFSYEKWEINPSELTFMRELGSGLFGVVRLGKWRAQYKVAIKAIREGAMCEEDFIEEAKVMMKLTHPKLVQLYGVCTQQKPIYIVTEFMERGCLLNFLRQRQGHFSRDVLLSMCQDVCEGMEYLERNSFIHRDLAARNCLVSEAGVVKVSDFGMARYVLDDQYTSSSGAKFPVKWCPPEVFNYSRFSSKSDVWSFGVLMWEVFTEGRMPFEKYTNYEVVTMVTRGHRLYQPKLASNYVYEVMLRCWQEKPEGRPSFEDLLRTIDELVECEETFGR

MYLK3 = target: T3, MYLK3 (Homo sapiens, UniProt Q32MK0)
T3 sequence (Q32MK0 1-819): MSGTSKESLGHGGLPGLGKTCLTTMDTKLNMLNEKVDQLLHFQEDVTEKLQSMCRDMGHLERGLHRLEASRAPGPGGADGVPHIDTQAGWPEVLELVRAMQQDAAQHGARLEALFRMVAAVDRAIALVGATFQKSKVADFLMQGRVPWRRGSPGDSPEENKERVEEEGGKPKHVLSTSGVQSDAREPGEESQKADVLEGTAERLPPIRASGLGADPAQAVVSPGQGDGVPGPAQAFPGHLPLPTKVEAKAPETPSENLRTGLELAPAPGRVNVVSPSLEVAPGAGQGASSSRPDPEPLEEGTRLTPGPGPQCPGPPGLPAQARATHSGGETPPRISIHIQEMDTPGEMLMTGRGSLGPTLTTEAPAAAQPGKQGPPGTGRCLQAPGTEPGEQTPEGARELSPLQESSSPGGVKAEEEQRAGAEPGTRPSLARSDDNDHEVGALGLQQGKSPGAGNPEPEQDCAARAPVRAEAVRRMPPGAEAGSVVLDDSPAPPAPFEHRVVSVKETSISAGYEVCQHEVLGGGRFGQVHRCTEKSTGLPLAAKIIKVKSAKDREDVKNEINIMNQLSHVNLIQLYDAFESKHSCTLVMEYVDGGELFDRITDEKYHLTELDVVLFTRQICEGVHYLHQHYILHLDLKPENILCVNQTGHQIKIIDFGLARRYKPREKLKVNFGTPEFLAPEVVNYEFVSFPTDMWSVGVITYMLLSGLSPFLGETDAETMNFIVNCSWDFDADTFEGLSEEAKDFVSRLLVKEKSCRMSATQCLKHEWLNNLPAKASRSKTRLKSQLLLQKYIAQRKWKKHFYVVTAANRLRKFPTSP

PKMYT1 = target: T4, PKMYT1 (Homo sapiens, UniProt Q99640)
T4 sequence (Q99640 1-499): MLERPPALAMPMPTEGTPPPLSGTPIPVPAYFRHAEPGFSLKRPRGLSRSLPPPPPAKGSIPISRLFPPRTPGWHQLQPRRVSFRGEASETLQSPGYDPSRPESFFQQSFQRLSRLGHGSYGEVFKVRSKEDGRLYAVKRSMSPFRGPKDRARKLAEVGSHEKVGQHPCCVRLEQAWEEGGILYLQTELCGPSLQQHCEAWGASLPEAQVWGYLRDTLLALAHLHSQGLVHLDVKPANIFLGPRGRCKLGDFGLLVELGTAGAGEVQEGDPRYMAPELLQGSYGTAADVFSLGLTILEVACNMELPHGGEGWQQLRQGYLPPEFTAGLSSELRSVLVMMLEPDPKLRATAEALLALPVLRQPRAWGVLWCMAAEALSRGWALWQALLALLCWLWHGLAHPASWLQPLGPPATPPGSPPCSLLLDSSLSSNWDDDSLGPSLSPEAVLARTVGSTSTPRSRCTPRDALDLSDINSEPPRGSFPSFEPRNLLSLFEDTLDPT

ABL2 = ABL2 (Homo sapiens, UniProt P42684)
ABL2, sequence (P42684 whole entry): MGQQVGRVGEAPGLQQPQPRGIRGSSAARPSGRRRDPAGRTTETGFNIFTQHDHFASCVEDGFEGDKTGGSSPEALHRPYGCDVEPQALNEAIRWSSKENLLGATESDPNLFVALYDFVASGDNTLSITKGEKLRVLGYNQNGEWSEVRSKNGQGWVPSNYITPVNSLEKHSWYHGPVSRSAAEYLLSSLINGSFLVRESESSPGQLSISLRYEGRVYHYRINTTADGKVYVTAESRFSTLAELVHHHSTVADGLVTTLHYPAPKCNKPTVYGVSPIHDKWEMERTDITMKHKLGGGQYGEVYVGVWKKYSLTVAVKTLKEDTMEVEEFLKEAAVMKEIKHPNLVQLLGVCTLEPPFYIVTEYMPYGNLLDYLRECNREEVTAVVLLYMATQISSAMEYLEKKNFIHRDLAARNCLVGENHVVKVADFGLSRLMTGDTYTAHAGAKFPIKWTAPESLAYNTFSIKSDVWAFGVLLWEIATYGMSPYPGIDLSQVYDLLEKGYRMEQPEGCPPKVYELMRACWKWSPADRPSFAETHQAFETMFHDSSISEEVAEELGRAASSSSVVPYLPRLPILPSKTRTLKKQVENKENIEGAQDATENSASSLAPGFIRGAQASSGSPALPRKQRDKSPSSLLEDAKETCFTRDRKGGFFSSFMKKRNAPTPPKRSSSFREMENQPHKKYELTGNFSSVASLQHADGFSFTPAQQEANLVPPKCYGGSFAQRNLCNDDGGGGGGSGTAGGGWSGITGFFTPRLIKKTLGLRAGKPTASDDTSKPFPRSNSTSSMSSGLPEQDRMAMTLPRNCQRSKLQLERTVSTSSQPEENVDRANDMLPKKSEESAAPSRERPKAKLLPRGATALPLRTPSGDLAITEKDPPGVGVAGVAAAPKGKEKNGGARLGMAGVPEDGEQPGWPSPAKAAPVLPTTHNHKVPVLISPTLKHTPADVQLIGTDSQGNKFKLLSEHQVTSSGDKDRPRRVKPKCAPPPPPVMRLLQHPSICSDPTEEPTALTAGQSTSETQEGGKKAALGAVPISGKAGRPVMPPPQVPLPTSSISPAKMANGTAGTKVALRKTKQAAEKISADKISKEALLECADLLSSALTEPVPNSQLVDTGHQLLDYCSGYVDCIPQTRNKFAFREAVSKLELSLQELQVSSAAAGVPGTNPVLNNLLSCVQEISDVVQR

PRKACB = PRKACB (Homo sapiens, UniProt P22694)

MAP3K4, sequence (Q9Y6R4 whole entry): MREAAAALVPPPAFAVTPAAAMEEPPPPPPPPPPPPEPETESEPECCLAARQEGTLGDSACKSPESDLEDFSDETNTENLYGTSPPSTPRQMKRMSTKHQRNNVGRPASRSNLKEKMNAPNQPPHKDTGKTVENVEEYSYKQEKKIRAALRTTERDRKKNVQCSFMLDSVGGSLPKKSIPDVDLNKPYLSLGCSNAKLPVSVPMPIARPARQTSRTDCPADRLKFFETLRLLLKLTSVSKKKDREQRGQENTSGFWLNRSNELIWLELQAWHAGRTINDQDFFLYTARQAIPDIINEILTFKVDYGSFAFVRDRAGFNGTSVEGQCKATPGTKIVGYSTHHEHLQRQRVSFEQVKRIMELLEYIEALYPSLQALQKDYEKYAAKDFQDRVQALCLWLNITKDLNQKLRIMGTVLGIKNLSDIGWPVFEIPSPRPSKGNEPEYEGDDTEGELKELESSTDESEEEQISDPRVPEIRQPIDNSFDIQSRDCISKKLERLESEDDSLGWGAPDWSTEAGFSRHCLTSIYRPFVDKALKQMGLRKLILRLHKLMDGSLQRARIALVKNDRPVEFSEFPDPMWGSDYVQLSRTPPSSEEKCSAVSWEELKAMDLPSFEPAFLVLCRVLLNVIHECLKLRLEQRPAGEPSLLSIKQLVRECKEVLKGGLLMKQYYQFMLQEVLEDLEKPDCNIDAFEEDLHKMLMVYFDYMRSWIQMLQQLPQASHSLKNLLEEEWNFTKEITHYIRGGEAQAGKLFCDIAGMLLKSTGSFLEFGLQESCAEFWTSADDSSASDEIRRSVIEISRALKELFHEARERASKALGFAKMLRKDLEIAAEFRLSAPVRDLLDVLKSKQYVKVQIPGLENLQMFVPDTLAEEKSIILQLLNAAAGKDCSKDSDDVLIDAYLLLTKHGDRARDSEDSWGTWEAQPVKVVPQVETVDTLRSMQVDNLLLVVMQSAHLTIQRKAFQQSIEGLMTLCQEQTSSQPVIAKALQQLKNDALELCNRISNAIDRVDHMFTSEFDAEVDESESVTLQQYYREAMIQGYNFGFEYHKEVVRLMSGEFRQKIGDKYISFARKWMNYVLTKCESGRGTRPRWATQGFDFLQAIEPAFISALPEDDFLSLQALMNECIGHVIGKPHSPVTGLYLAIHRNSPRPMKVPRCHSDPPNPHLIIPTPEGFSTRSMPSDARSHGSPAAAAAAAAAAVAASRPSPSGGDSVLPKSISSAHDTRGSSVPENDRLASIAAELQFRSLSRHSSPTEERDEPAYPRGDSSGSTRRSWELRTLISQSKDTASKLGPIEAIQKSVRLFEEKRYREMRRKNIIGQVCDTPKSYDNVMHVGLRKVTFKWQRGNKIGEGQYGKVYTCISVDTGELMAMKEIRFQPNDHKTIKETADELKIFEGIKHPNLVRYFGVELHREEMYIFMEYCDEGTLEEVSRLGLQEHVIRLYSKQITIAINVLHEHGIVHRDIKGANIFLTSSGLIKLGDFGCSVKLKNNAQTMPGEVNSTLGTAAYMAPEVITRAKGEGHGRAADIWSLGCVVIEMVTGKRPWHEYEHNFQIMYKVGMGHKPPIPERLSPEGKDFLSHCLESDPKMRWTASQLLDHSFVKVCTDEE

Compound | IC50 (MAP3K4) | IC50 (CHUK) [nM] | IC50 (DYRK1A) | IC50 (TEC) | IC50 (MYLK3) | IC50 (PKMYT1) | IC50 (ABL2) | IC50 (PRKACB) [nM]
CN(C)CC(O)COc1ccc(Nc2ncc([N+](=O)[O-])c(Nc3ccccc3O)n2)cc1.O=C(O)C(F)(F)F (stereo not drawn) [TCMDC-141399] | 840 nM | > 20000 | 4900 nM | > 20000 nM | 2100 nM and 1800 nM | > 20000 nM | 4200 nM | > 20000
Cl.NCC1(c2nc(-c3ccc(Cl)c(O)c3)c(-c3ccncc3)[nH]2)CCCCC1 [TCMDC-141154] | > 20000 nM | > 20000 | > 20000 nM | > 20000 nM | > 20000 nM | > 20000 nM | 490 nM and 400 nM | 890
CN1CCN(c2ccc(Nc3ncc(C#N)c(Nc4ccccc4C(N)=O)n3)cc2)CC1.Cl [TCMDC-134116] | 39 nM and 51 nM | > 20000 | 490 nM and 450 nM | 460 nM and 490 nM | 67 nM and 93 nM | 1400 nM and 940 nM | 200 nM and 160 nM | 6300
